In assay [1] the target is Transcription initiation factor TFIID subunit 1 (Homo sapiens, UniProt P21675). The assay is described as follows: Displacement of biotinylated probe from human TAF1 bromodomain 2 (1522 to 1656 residues) expressed in Escherichia coli BL21 (DE3) by alphascreen assay. A general note: Bead proximity is the source of the signal in Alpha formats.
The target of assay [2] is Bromodomain-containing protein 4 (Homo sapiens, UniProt O60885). The assay is described as follows: Displacement of Bio-JQ1 from recombinant human His6 tagged BRD4 bromodomain 1 by alphascreen assay.

Chain of Transcription initiation factor TFIID subunit 1 (P21675 whole entry, the tested form may be a part): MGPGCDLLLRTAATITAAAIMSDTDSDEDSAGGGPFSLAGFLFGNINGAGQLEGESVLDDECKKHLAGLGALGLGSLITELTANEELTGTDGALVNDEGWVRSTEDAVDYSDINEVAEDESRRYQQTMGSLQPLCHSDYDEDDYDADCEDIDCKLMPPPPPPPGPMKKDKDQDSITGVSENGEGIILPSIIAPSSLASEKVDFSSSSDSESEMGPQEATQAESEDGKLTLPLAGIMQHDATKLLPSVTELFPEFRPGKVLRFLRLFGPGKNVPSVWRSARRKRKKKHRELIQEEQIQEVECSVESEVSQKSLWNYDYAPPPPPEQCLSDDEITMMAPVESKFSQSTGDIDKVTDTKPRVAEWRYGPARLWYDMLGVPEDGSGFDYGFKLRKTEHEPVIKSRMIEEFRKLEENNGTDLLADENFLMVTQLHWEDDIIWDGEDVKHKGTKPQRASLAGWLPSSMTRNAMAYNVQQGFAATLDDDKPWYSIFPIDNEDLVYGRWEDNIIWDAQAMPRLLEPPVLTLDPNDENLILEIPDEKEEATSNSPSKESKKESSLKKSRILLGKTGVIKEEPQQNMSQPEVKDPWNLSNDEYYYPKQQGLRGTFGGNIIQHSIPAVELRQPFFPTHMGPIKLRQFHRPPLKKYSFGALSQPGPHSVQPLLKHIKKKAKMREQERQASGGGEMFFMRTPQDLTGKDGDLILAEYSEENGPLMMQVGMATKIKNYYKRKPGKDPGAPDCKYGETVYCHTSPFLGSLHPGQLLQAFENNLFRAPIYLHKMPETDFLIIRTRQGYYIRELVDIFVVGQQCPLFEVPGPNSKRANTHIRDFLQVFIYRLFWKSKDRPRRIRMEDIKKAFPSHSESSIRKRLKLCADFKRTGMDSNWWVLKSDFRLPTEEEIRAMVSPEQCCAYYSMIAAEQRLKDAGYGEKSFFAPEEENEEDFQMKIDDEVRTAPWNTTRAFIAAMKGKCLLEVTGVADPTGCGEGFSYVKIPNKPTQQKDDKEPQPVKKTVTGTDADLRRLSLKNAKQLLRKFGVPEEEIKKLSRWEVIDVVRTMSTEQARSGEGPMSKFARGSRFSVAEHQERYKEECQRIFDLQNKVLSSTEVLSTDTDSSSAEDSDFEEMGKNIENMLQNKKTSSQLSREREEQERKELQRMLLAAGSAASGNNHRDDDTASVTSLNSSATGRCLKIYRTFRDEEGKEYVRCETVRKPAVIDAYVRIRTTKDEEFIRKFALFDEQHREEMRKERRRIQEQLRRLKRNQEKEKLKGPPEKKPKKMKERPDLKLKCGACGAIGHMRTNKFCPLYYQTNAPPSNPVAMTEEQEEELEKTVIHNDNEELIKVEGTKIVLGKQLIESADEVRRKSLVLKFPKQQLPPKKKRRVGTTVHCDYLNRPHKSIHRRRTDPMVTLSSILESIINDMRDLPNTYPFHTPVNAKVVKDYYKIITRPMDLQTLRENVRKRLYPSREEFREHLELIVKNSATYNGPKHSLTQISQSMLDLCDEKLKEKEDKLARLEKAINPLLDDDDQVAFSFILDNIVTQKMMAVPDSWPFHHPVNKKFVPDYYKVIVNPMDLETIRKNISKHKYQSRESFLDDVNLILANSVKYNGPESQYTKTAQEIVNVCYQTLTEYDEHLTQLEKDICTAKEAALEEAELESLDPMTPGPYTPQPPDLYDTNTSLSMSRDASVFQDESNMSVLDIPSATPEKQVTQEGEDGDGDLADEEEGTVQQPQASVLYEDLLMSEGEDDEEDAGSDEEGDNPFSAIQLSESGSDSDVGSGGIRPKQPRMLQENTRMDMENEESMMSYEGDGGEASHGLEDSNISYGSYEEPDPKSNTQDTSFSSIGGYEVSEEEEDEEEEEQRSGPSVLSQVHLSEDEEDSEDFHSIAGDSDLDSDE

The term IC50 denotes the concentration that inhibits the measured activity by half. `CC[C@@H]1C(=O)Nc2cnc(Nc3ccc(C(=O)NC4CCN(C)CC4)cc3OC)nc2N1C1CCCC1`: the IC50 in assay [1] and in assay [2] was more than 10000 nM each time.
Regarding `CC[C@@H]1C(=O)N(CC)c2cnc(Nc3ccc(C(=O)NC4CCN(C)CC4)cc3OC)nc2N1C1CCCC1`, the IC50 in assay [1] worked out at 410 nM; in assay [2], 690 nM.
The matching figures for `CC[C@@H]1C(=O)N(C)c2cnc(Nc3ccc(C(=O)NC4CCN(C)CC4)cc3)nc2N1C1CCCC1`: 150 nM and 280 nM.
The matching figures for `CC[C@@H]1C(=O)N(C)c2cnc(Nc3ccc(C(=O)NC4CCN(C)CC4)cc3OC3CCCC3)nc2N1C1CCCC1`: 100 nM and 33 nM.
The like results for `CC[C@@H]1C(=O)N(C)c2cnc(Oc3ccc(C(=O)NC4CCN(C)CC4)cc3OC)nc2N1C1CCCC1` were, in that order, more than 10000 nM and 620 nM.
Consider `CC[C@@H]1C(=O)N(C)c2cnc(Nc3ccc(C(=O)NC4CCN(C)CC4)cc3OC3CCC3)nc2N1C1CCCC1`, for which the half-inhibitory concentration (IC50) in assay [1] is 110 nM; in assay [2], 62 nM.
The matching figures for `C[C@@H]1C(=O)N(C)c2cnc(Nc3ccc(C(=O)NC4CCN(C)CC4)cc3)nc2N1C1CCCC1`: 87 nM and 68 nM.
The matching figures for `COc1cc(C(=O)N2CCC(O)CC2)ccc1Nc1cc2c(cc1C)N(C)C(=O)[C@@H](C)N2C1CCCC1`: more than 10000 nM and 2100 nM.
The like results for `COc1cc(C(=O)N2CCC(O)CC2)ccc1Nc1ccc2c(n1)N(C1CCCC1)[C@H](C)C(=O)N2C` were, in that order, 93 nM and 47 nM.
On to `CC[C@@H]1C(=O)N(C)c2cnc(Nc3ccc(C(=O)NC4CCN(C)CC4)cc3OC(C)C)nc2N1C1CCCC1`, for which the results for the IC50 in assay [1] and in assay [2] were 210 nM and 63 nM, respectively.
The like results for `COc1cc(C(=O)N2CCC(O)CC2)ccc1Nc1ccc2c(n1)N(Cc1ccccc1)[C@H](C)C(=O)N2C` were, in that order, 720 nM and 240 nM.
The like results for `C=CCCN1C(=O)[C@@H](C)N(C2CCOCC2)c2nc(Nc3ccc(C(=O)NC4CCN(C)CC4)cc3OC)ccc21` were, in that order, 82 nM and more than 10000 nM.
The like results for `COc1cc(C(=O)N2CCC(O)CC2)ccc1Nc1ccc2c(n1)N1CCCC[C@@H]1C(=O)N2C` were, in that order, 210 nM and 7200 nM.
For `COc1cc(C(=O)N2CCC(O)CC2)ccc1Nc1ccc2c(c1)N(C1CCCC1)[C@H](C)C(=O)N2C`, the IC50 was 580 nM in assay [1] and 110 nM in assay [2].
In the case of `COc1cc(C(=O)NC2CCN(C)CC2)ccc1Nc1ccc2c(n1)N(C1CCOCC1)[C@H](C)C(=O)N2C`, the IC50 in assay [1] was less than 10 nM; in assay [2] it was 49 nM.
The like results for `C=CCCN1C(=O)[C@@H](C)N(C2CCCC2)c2nc(Nc3ccc(C(=O)N4CCC(O)CC4)cc3OC)ccc21` were, in that order, 570 nM and 4400 nM.
For `COc1cc(C(=O)N2CCC(O)CC2)ccc1Nc1cc2c(cc1OC)N(C)C(=O)[C@@H](C)N2C1CCCC1`, the values for the IC50 in assay [1] and in assay [2] were 750 nM and 7300 nM, respectively.
The like results for `CC[C@@H]1C(=O)N(C)c2ccc(Nc3ccc(C(=O)NC4CCN(C)CC4)cc3OC)nc2N1C1CCCC1` were, in that order, 450 nM and 150 nM.
The matching figures for `C[C@@H]1C(=O)N(C)c2ccc(Nc3ccc(C(=O)NC4CCN(C)CC4)cc3OC3CCCC3)nc2N1C1CCCC1`: 31 nM and 48 nM.
The matching figures for `CC(C)Oc1cc(C(=O)NC2CCN(C)CC2)ccc1Nc1ccc2c(n1)N(C1CCCC1)[C@H](C)C(=O)N2C`: 89 nM and 130 nM.
Turning to `COc1cc(C(=O)N2CCC(O)CC2)ccc1Nc1ccc2c(n1)N(C1CCOCC1)[C@H](C)C(=O)N2C`, the figures for the IC50 in assay [1] and in assay [2] were 38 nM and 140 nM, respectively.
The matching figures for `COc1cc(C(=O)N2CCC(O)CC2)ccc1Nc1ccc2c(c1C)N(C)[C@H](C)C(=O)N2C`: 980 nM and more than 10000 nM.
For the compound `CC(C)Oc1cc(C(=O)NC2CCN(C)CC2)ccc1Nc1ncc2c(n1)N(C1CCCC1)[C@H](C)C(=O)N2C`, the values for the IC50 in assay [1] and in assay [2] were 320 nM and 220 nM, respectively.
The like results for `COc1cc(C(=O)N2CCC(O)CC2)ccc1Nc1ccc2c(n1)N(C1CCCCC1)[C@H](C)C(=O)N2C` were, in that order, 72 nM and 150 nM.
Regarding `C=CCN1C(=O)[C@@H](C)N(C2CCCC2)c2nc(Nc3ccc(C(=O)N4CCC(O)CC4)cc3OC)ccc21`, the IC50 worked out at 1700 nM in assay [1] and 4500 nM in assay [2].
As to `COc1cc(C(=O)N2CCC(O)CC2)ccc1Nc1ccc2c(n1)N(C1CCCCCC1)[C@H](C)C(=O)N2C`, the IC50 was 240 nM in assay [1] and 220 nM in assay [2].
The like results for `COc1cc(C(=O)NC2CCN(C)CC2)ccc1Nc1ccc2c(n1)N1CCCC[C@@H]1C(=O)N2C` were, in that order, 63 nM and 2700 nM.
The like results for `CC[C@@H]1C(=O)N(C)c2cnc(N(C)c3ccc(C(=O)NC4CCN(C)CC4)cc3OC)nc2N1C1CCCC1` were, in that order, more than 10000 nM and 100 nM.
The like results for `COc1cc(C(=O)N2CCC(O)CC2)ccc1Nc1cc2c(cc1F)N(C)C(=O)[C@@H](C)N2C1CCCC1` were, in that order, 4600 nM and 680 nM.
Consider `COc1cc(C(=O)NC2CCN(C)CC2)ccc1Nc1ccc2c(n1)N(C1CCCC1)[C@H](C)C(=O)N2C`, for which the IC50 in assay [1] was determined as 16 nM; in assay [2] it was 37 nM.
The matching figures for `C[C@@H]1C(=O)N(C)c2ccc(Nc3ccc(C(=O)NC4CCN(C)CC4)cc3)nc2N1C1CCCC1`: 340 nM and 190 nM.
As for `COc1cc(C(=O)N2CCC(O)CC2)ccc1Nc1ccc2c(n1)N(C1CCC(C)(C)C1)[C@H](C)C(=O)N2C` (mixture of isomers), the IC50 is 300 nM in assay [1] and 140 nM in assay [2].

For the origin of these results see ChEMBL document CHEMBL4304835 (ACS Med Chem Lett, 2019).
